Here are results for two compounds from patent publication EP0539470B1, “NEUROMUSCULAR BLOCKING AGENTS” (THE WELLCOME FOUNDATION LIMITED, priority 1990, dated 1992).

Holding throughout (type): in vivo
For one data set, the system named is vagus. The data set can be described thus: Parasympathetic blockade in anaesthetized cats (inhibition of the response to vagus stimulation). Particulars: i.v., ED₅₀ for inhibition of parasympathetic (vagus) nerve stimulation relative to neuromuscular ED₉₅. The method, then: (§1) Mongrel male cats (Southeastern Laboratories Animal Farm), weighing 2.2-4.25kg, were anaesthetized with a mixture of pentobarbital sodium, 7mg/kg i.p., and alpha-chloralose, 80 mg/kg i.p. Adequate levels of anaesthesia were maintained with supplemental doses of alpha-chloralose administered intravenously as needed. The trachea was cannulated and the animals were ventilated with 20 ml/kg of room air via a Harvard Apparatus respiration pump adjusted to deliver 20 strokes/minute. Arterial blood pressure was measured via a cannula in the right femoral artery connected to a Statham P23 transducer. Heart rate was determined from the ECG using a Grass tachograph. […] Isometric […] of the nictitating membrane were recorded during a resting tension of 5 grams with a Grass FT.03 force displacement transducer and a Grass polygraph. […] Twitch tension in the anterior tibialis was recorded during a resting tension of 50 grams. […] Esophageal temperature was monitored with a Yellow Springs thermistor probe and core temperature maintained between 37° and 38°C with radiant heat. […] At the end of the experiments, cats were euthanatized with intravenously administered saturated KCl or pentobarbital sodium. b) Results The ED₉₅ value for neuromuscular blocking potency was calculated from dose-response curves. […]

For data set [1], the system named is cervical sympathetic nerve. The data set can be described thus: Sympathetic blockade in anaesthetized cats (cervical sympathetic nerve stimulation, nictitating membrane contraction). To be noted: i.v., ED₂₅ for inhibition of sympathetic nerve stimulation relative to neuromuscular ED₉₅. The method, then: as §1
A further data set deals with anterior tibialis. The data set can be described thus: Neuromuscular blocking potency in anaesthetized cats (peroneal nerve stimulation, anterior tibialis twitch tension). Particulars: intravenous (femoral vein), calculated from dose-response curves, mg/kg as the free base, based on the weight of the atracurium cation. The method, then: as §1

For the compound `COc1ccc(C[C@@H]2c3cc(OC)c(OC)cc3CC[N+]2(C)CCC(=O)OCCCCCOC(=O)CC[N+]2(C)CCc3cc(OC)c(OC)cc3[C@H]2Cc2ccc(OC)c(OC)c2)cc1OC.CS(=O)(=O)[O-].CS(=O)(=O)[O-]` (relative stereo) [Compound A, 1R-cis,1'R-cis-2,2'-(3,11-Dioxo-4,10-dioxatridecamethylene)-bis-(1,2,3,4-tetrahydro-6,7-dimethoxy-2-methyl-1-veratrylisoquinolinium)methanesulphonate], the “RATIO 50% VAGUS INHIBITION vs. ED₉₅” value in the data set on vagus was 27. Moreover, the “RATIO 25% SYMPATHETIC INHIBITION vs. ED₉₅” value in data set [1] was found to be 60. Besides, the “CALC. * ED₉₅” value with anterior tibialis is on record as 0.062 ± 0.008 mg/kg.

For the compound `COc1ccc(CC2c3cc(OC)c(OC)cc3CC[N+]2(C)CCC(=O)OCCCCCOC(=O)CC[N+]2(C)CCc3cc(OC)c(OC)cc3C2Cc2ccc(OC)c(OC)c2)cc1OC` (stereo not drawn) [Atracurium besylate, 2,2'-(3,11-dioxo-4,10-dioxatridecylene)-bis-(1,2,3,4-tetrahydro-6,7-dimethoxy-2-methyl-1-veratrylisoquinolinium dibesylate], the “RATIO 50% VAGUS INHIBITION vs. ED₉₅” value with vagus was found to be 17. The “RATIO 25% SYMPATHETIC INHIBITION vs. ED₉₅” value in data set [1] worked out at 34. In addition, the “CALC. * ED₉₅” value in the data set on anterior tibialis is recorded as 0.092 ± 0.010 mg/kg.
